The nature of data set [1]: Human liver microsome intrinsic clearance. The data set is classed as in vitro ADME. The settings on record: apparent intrinsic clearance, scaled. A general note: Microsomes from liver hold many membrane-bound enzymes, among them those of drug oxidation.
The next data set deals with CYP-2C9 (Homo sapiens, UniProt P11712). Kind of data set: CYP inhibition, 2C9. Type of data set: in vitro ADME. The settings on record: most potently inhibited isoform was CYP-2C9. An excerpt:
Table 3 New Combinations from Free–Wilson Analysis | column: CYP IC50/μM ^c

A further data set can be described thus: Rat PK (iv and po). The data set is classed as in vivo. From the text: This was an early indication that the strategy of increasing potency while lowering lipophilicity would allow us to meet our goal of improving prospects for favorable PK and dose.

These results are taken from PMC10641921, “Optimization of mTOR Inhibitors Using Property-Based Drug Design and Free–Wilson Analysis for Improved In Vivo Efficacy” (ACS Medicinal Chemistry Letters, 2023).

CYP-2C9, sequence (P11712 whole entry, canonical isoform): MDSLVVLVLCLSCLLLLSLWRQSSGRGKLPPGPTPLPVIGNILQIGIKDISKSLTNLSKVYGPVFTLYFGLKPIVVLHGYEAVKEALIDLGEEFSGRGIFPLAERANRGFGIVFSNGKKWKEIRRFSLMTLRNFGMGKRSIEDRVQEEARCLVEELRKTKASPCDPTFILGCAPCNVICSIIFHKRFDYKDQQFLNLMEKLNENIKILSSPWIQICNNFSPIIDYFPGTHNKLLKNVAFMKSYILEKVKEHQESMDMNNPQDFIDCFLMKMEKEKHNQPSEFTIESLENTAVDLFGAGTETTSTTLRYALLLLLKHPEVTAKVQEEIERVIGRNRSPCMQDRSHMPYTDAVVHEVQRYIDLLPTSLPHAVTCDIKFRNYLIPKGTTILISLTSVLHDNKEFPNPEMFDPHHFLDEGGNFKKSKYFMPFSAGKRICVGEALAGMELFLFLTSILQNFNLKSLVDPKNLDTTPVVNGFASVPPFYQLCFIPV

Usually IC50 stands for the point on the concentration scale where inhibition reaches its midpoint. A word on the bioavailability: it is the share of a dose that reaches the circulation, judged against a reference dose that is usually intravenous. Read a high bioavailability as good availability. For orientation: Cmax means the maximum level reached in the sampled fluid or tissue. With `Cc1ccc(-c2ncc3c(n2)N2CCOC[C@@]2(C)C(=O)N3[C@H]2CC[C@H](O)CC2)c2cc[nH]c12` [15a], the “HLM Clint” value in data set [1] was 6 mL min^–1 kg^–1. Besides, the IC50 at CYP-2C9 came to 5 µM. Moreover, in the data set “Rat PK (iv and po)” (estimated from %F, Cl and Qh = 70 mL min^–1 kg^–1), the frac. abs. is reported as 41%. The bioavailability in the data set “Rat PK (iv and po)” (in vivo, 4 mg/kg, iv 1 mpk, po 4 mpk in 0.5% methylcellulose) stood at 35%. In the data set “Rat PK (iv and po)” (iv 1 mpk), this compound gave a Cl of 10 mL min^–1 kg^–1 and a Vd of 1.6 L/kg. For the same compound, the Cmax in “Rat PK (iv and po)” (po 4 mpk in 0.5% methylcellulose) stood at 570 nM.
